Reference: patent US6410587B1, “Compounds and therapies for the prevention of vascular and non-vascular pathologies” (NeoRx Corporation, priority 1997, dated 2002)
Marks after values point to notes of the source that are not given here.

Tests used:
[1] = cited from earlier work; for covalent (hepatic) DNA adducts: rat, in vivo; for long-term carcinogenicity: rats
TGF-beta [2] = experiment: TGF-beta production by human VSMCs in culture; type: cell-based; conditions: cultured VSMCs
Description: The amount of TGF-beta present in medium conditioned on VSMCs in the presence and absence of aspirin was measured by ELISA.
The ED50 for TGF-beta production of the complex (Cu Aspirinate) was determined in cultured rat and human VSMCs.

TGF-beta [3] = experiment: TMX 40 mg/day for 10 days in TVD patients: plasma TGF-beta; type: in vivo, human
Description: Active plus acid-activatable latent (a+1) TGF-beta levels were assayed in platelet-poor plasma using seven different assay methods. There has been debate in the literature regarding the most appropriate way to measure (a+1) TGF-beta, so to avoid difficulties specific to any particular measurement method all the available methods which have been described in the literature were used. The seven methods are:
(A) A sandwich ELISA using BDA19 and BDA5 (R&D Systems) antibodies with no activation step required.
(B) The Quantikine TGF-beta1 ELISA kit (R&D Systems) using acid/urea as the activation buffer in accordance with the manufacturer's instructions
(C) The Quantikine TGF-beta1 ELISA kit (R&D Systems) using acid alone as the activation buffer
(D) The BioTrak TGF-beta1 ELISA kit (Amersham International) using acid/urea as the activation buffer
(E) The BioTrak TGF-beta1 ELISA kit (Amersham International) using acid alone as the activation buffer in accordance with the manufacturers instructions
(F) The TGF-beta1 ELISA kit (Genzyme Diagnostics) using acid/urea as the activation buffer in accordance with the manufacturer's instructions
(G) The TGF-beta1 ELISA kit Promega Corporation) using acid alone as the activation buffer in accordance with the manufacturer's instructions
Replicate aliquots of plasma taken from the same individuals at the same time were assayed by all seven methods.
The partitioning of TGF-beta between the lipoproteins and plasma proteins was analyzed by separating the lipoprotein fraction (d<[…]) from the plasma proteins by density ultracentrifugation as described hereinabove. TGF-beta levels were assayed in both fractions using the Quantikine ELISA kit, following release and activation of TGF-beta with acetic acid and urea in accordance with the manufacturer's instructions. None of the three TGF-beta ELISAs used here detected TGF-beta in the lipoprotein fraction without prior extraction/activation with acetic acid/urea.

[4] = Serum lipid and lipoprotein profile of apoE knockout mice; type: in vivo, mouse; conditions: apo(E)−/− mouse
Description: The effect of each treatment on the lipid profile of each group of mice was determined by measuring the cholesterol and triglyceride. Blood from a terminal bleed was collected in a polypropylene tube, allowed to clot at room temperature for 2 hours and then spun (1,000×g; 5 minutes). The serum supernatant was aliquoted and stored at −20° C. until assayed. Total cholesterol and total triglycerides were determined for each mouse using the cholesterol oxidase and glycerol kinase UV end-point enzymatic methods respectively (Sigma Diagnostics).

NFkB = NFkB translocation (p65 immunostaining) and kB-luciferase reporter activity in human SMCs; type: cell-based
Source text: In cells which had been transfected with a reporter construct which has three consensus kB DNA elements fused to the luciferase gene, the amount of light which was produced when the cell lysate was exposed to luciferin and ATP was proportional to NFkB activity.

[5] = TMX 40 mg/day for 10 days in TVD patients: plasma lipids, Lp(a), PAI-1
Source text: Patients with triple vessel disease (TVD) were defined as individuals having at least 50% stenosis of all three coronary arteries by angiography, which was confirmed by two independent observers. All had stable angina, with no myocardial infarction in the previous three months. Patients with unstable angina, poor left ventricular function, ventricular hypertrophy or diabetes were excluded.
Blood samples were taken and plasma prepared before and during the treatment period, and these samples were analyzed for TGF-beta, Lp(a), PAI-1 and lipoprotein profiles. Patients were asked to fast overnight prior to samples of blood being drawn between 9 am. and 10 a.m. the following morning. Blood samples were drawn by venepuncture of the antecubital vein with no tourniquet applied using a 21 gauge butterfly needle. Half the blood was allowed to clot for 2 hours at room temperature in polypropylene tubes. The clot was spun down (1,500×g; 15 minutes) and aliquots of the serum was stored at −100° C. The remaining blood was dispensed into Diatube H tubes (Diagnostica Stago) and cooled on ice for 15 minutes. Blood cells and platelets were spun down (6,000×g; 30 minutes) and the middle third of the supernatant was taken, carefully avoiding disturbing the pellet. This platelet-poor plasma was stored in aliquots at −100° C. until assayed.
Total plasma triglyceride, total plasma cholesterol, HDL-cholesterol, LDL-cholesterol and VLDL-cholesterol were routinely assayed in all patients.

apoE knockout mice = experiment: Lipid lesion development in aortic sinus of apoE knockout mice (Oil Red O); conditions: mouse aorta
Description: To determine the efficacy of combination therapy, and to provide evidence for synergism between aspirin and fish oil, 8-week-old female apoE knockout mice were fed aspirin or fish oil, or both, to assess the cardioprotective effects of modulating different components of the TGF-beta pathway.
Group A mice (n=10) were sacrificed at day 0. Group B mice (n=10) were fed normal chow. […] Group D mice (n=10) were fed chow containing 33 mg/kg/day fish oil (200 μg Pulse cod liver oil/g food, Seven Seas Ltd., which contains 0.9 g eicosapentaenoic acid (EPA), and 0.3 g docosahexaenoic acid (DHA)) and 3 mg/kg/day aspirin dissolved in water. Group E mice (n=10) were fed chow containing 33 mg/kg/day fish oil. Group F mice (n=10) were fed chow containing Zocor (simvastatin; Zocor tablets, Merck, Sharpe & Dohme) at 400 μg/kg/day (2 μg/g food).
Groups B-F were fed these regimens for 87 days. All mice were weighed daily for the first week and weekly thereafter. Food and water consumption over a 24 hour period were measured daily for the first 7 days and weekly thereafter.
After 87 days, mice in groups B-F were fasted overnight and then sacrificed. Serum, heart, lungs and aorta samples were collected at the time of sacrifice. The heart, lungs and aorta were removed from each mouse and rinsed in PBS, dabbed dry on tissue and embedded in Cryo-M-bed embedding medium (Bright Instruments, Huntington, U.K.) before snap freezing in liquid nitrogen. Frozen sections (4 μm thickness) of the aortic sinus region were prepared from the heart/lung/aorta blocks according to the sectioning strategy of Paigen et al. (Arteriosclerosis, 10, 316 (1990)). Sections on 5% gelatin-coated slides were stained for neutral lipid by the Oil Red O technique and counter-stained with fast green (Grainger et al., Nature Med., 1, 1067 (1995)).
The development of lipid-filled vascular lesions was determined by the quantitation of oil red O staining for neutral lipid deposited in the aortic sinus region. The area of lipid accumulation was measured using a calibrated microscope eye-piece, such that lipid droplets<50 μm^2 were ignored and contiguous regions of lipid staining>500 μm in area were classified as lesions.

GR = experiment: MMTV LTR-CAT reporter in stably transfected SMCs; type: cell-based
Source text: Because ER. interacts with NFkB transcription factor complexes in a similar manner to that for GR, agents which modulate ER/NFkB interaction should modulate the inflammatory response without activating GR. To test this hypothesis, SMCs in DMEM+10% FCS were transfected with a vector comprising the MMTV LTR promoter coupled to the chloramphenicol acetyl transferase (CAT) gene and the neomycin resistance gene (neo). A stably transfected line was selected using geneticin. When these cells were treated with dexamethasone, expression of the CAT gene was elevated 3.7±0.7 fold. […] Thus, ER/NFkB modulators would be expected to circumvent the undesirable side-effect profile associated with direct transcriptional activation by GR.

[6] = rats; cited from earlier work
[7] = biological target: T1, recombinant extracellular domain of the type II TGF-beta receptor (R2X) (Homo sapiens, UniProt P37173); experiment: Binding of recombinant TGF-beta to R2X (ELISA); conditions: lipoprotein equivalent to 3 mM total cholesterol added; maximal value
T1 construct: the recombinant extracellular domain of the type II TGF-beta receptor (R2X)
Description: To determine whether the TGF-beta associated with lipoprotein particles was able to bind to the type II TGF-beta signaling receptor and exert biological activity in vitro, the binding of recombinant TGF-beta to R2X was measured in the absence and presence of increasing concentrations of lipoprotein purified from the plasma of an individual with <1 ng/ml TGF-beta in plasma (individual I, Table 1). If the lipoprotein-associated fraction of TGF-beta is unavailable for binding, lipoproteins prepared from an individual with a very low plasma concentration of TGF-beta would be expected to reduce the binding of recombinant active TGF-beta to its receptors. The half maximal (ka) binding of recombinant TGF-beta to the recombinant extracellular domain of the type II TGF-beta receptor was previously determined to be 17±3 ng/ml (R2X; Grainger et al., Nature, 270, 460 (1994); Grainger et al., Clin. Chim. Acta, 235, 11 (1995)).
To measure the binding of TGF-beta to its receptor, the recombinant extracellular domain of the type II TGF-beta receptor (R2X), was coated onto ELISA plates (1 μg/well, Maxisorp plates, Gibco BRL). Wells were washed 3 times quickly in TBS and blocked with TBS containing 3% bovine serum albumin (BSA, fatty-acid free; Sigma) for 30 minutes. […] The amount of bound TGF-beta was detected with antibody BDA5 (R&D Systems) as previously described by Grainger et al., Clin. Chim. […]

[8] = tested on: mink lung epithelial (MvLu) cells; experiment: Inhibition of MvLu cell proliferation; type: cell-based
Source text: It has previously been shown that TGF-beta inhibits the proliferation of mink lung epithelial (MvLu) cells in culture. […] J. Physiol., 265, C571 (1993). […] Addition of lipoprotein purified from the plasma of individual I caused a dose-dependent increase in the ID50 of TGF-beta.

[9] = biological target: T1, recombinant extracellular domain of the type II TGF-beta receptor (R2X); conditions: no lipoprotein; previously determined; cited from earlier work
[10] = TNF-alpha (20 ng/ml) and tamoxifen (5 μM) simultaneously

T1 sequence (P37173 23-166 limits assumed): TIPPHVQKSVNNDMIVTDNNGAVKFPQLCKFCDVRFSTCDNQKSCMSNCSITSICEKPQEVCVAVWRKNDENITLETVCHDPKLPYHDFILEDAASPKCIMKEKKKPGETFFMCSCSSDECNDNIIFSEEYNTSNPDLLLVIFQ

In the case of `CC/C(=C(/c1ccc(I)cc1)c1ccc(OCCN(C)C)cc1)c1ccccc1` [4-iodotamoxifen], the “covalent (hepatic) DNA adducts” value [1] is listed as “absence of DNA adducts”.

In the case of `CC(=O)Oc1ccccc1C(=O)[O-].CC(=O)Oc1ccccc1C(=O)[O-].[Cu+2]` [Cu aspirinate, copper II (acetyl salicylate)2], the “potency at stimulating TGF-beta relative to aspirin” value (TGF-beta [2]) is reported as “almost two orders of magnitude more potent”.

For `CC/C(=C(\c1ccccc1)c1ccc(OCCN(C)C)cc1)c1ccccc1` [TMX, trans-2-[4-(1,2-diphenyl-1-butenyl)phenoxy]-N,N-dimethylethylamine], the “Plasma (a + 1) TGF-β, Method (A)” value (TGF-beta [3]; Day 10, BDA19/BDA5 sandwich ELISA) was 7.7 ± 1.5 ng/mL, the “Plasma (a + 1) TGF-β, Method (E)” value (TGF-beta [3]; Day 10, BioTrak, acid alone) was 2.3 ± 0.1 ng/mL and the “Plasma (a + 1) TGF-β, Method (D)” value (TGF-beta [3]; Day 10, BioTrak, acid/urea) was 2.4 ± 0.1 ng/mL. For the same compound, the “Plasma (a + 1) TGF-β, Method (F)” value (TGF-beta [3]; Day 10, Genzyme, acid/urea) was 5.2 ± 0.3 ng/mL, the “Plasma (a + 1) TGF-β, Method (G)” value (TGF-beta [3]; Day 10, Promega, acid alone) was 0.2 ± 0.1 ng/mL and the “Plasma (a + 1) TGF-β, Method (C)” value (TGF-beta [3]; Day 10, Quantikine, acid alone) was 0.62 ± 0.07 ng/mL. The “Plasma (a + 1) TGF-β, Method (B)” value (TGF-beta [3]; Day 10, Quantikine, acid/urea) was 1.2 ± 0.2 ng/mL, the “change in plasma (a + 1) TGF-β, Method (A)” value (TGF-beta [3]; Day 10 vs Day 0) was “(+24%)” and the “change in plasma (a + 1) TGF-β, Method (B)” value (TGF-beta [3]; Day 10 vs Day 0) was “(+71%)”. The “change in plasma (a + 1) TGF-β, Method (C)” value (TGF-beta [3]; Day 10 vs Day 0) was “(+148%)”, the “change in plasma (a + 1) TGF-β, Method (D)” value (TGF-beta [3]; Day 10 vs Day 0) was “(+20%)” and the “change in plasma (a + 1) TGF-β, Method (E)” value (TGF-beta [3]; Day 10 vs Day 0) was “(+29%)”. The “change in plasma (a + 1) TGF-β, Method (F)” value (TGF-beta [3]; Day 10 vs Day 0) was “(+59%)”, the “change in plasma (a + 1) TGF-β, Method (G)” value (TGF-beta [3]; Day 10 vs Day 0) was “(+100%)” and the “proportion of plasma TGF-beta that is lipoprotein-associated” value (TGF-beta [3]; after 10 days of TMX therapy, Quantikine ELISA) was 25±3%. For the same compound, the “median increase in (a+1) TGF-beta” value (TGF-beta [3]; by day 10) was 59%, the “lowering of VLDL” value [4] was “seven fold” and the inhibition at 5 µM (NFkB; Homo sapiens, read-out: inhibition of TNF-alpha-induced NFkB activity) was 86 ± 12%. For the same compound, the “NFkB translocated to the nucleus” value (NFkB; [10]) was “less than 10%”, the “stimulation of NFkB activity” value (NFkB; [10]) was “less than 3 fold” and the “change in NFkB activity” value (NFkB; tamoxifen alone) was “no detectable change”. For the same compound, the long-term carcinogenicity [1] was “liver carcinogenicity”, the HDL-cholesterol ([5]; Day 10) was 0.77 ± 0.04 mM and the LDL-cholesterol ([5]; Day 10) was 4.16 ± 0.25 mM. The “Lipoprotein(a)” value ([5]; Day 10) was 42.4 ± 9.5 mg/dL, the “Plasma PAI-I antigen” value ([5]; Day 10) was 35.9 ± 5.4 ng/mL and the Total plasma triglycerides ([5]; Day 10) was 2.28 ± 0.35 mM. The VLDL-cholesterol ([5]; Day 10) was 0.84 ± 0.11 mM, the Total plasma cholesterol ([5]; Day 10, mean ± standard error, 15 patients) was 5.95 ± 0.29 mM and the “concentration of HDL-cholesterol, change” value ([5]; after 10 days) was “unchanged”. The “concentration of LDL-cholesterol, change” value ([5]; after 10 days) was “unchanged”, the “decrease in total plasma cholesterol below baseline” value ([5]; after 10 days) was 6% and the “reduction of cholesterol in the VLDL fraction below baseline” value ([5]; after 10 days) was 18%. For the same compound, the “lowering of total plasma triglyceride concentration” value ([5]; after 10 days, not statistically significant (p=0.22)) was 18%, the “decrease in plasma concentration of Lp(a)” value ([5]; day 3 vs baseline) was 27% and the “reduction in Lp(a) concentration” value ([5]; day 10 vs baseline) was 31%. The “% Lesion Suppression” value (apoE knockout mice) was 99* %.

In the case of `CN(C)CCOc1ccc(/C(=C(/CCCl)c2ccccc2)c2ccccc2)cc1` [Toremifene, toremifene], the “covalent (hepatic) DNA adducts” value [1] is given as “very low level” and the long-term carcinogenicity [1] is given as “non-carcinogenic”.

For `C[C@@H]1C[C@H]2[C@@H]3CCC4=CC(=O)C=C[C@]4(C)[C@@]3(F)[C@@H](O)C[C@]2(C)[C@@]1(O)C(=O)CO` [dexamethasone], the “elevation of expression of the CAT gene” value (GR) was 3.7±0.7 fold.

In the case of `CC/C(=C(\c1ccc(I)cc1)c1ccc(OCCN2CCCC2)cc1)c1ccccc1` [idoxifene, (E)-1-[4-[2-(N-pyrrolidino)ethoxy]phenyl]-1-(4-iodophenyl)-2-phenyl-1-butene], the “covalent (hepatic) DNA adducts” value [1] is given as “absence of DNA adducts” and the “residual estrogenic activity compared with TMX” value [6] is given as “reduced residual estrogenic activity”.

In the case of TNF-alpha, the “NFkB translocated to the nucleus” value (NFkB; 20 ng/ml, 6 hours at 37° C.) is reported as greater than 80% and the “increase in NFkB activity” value (NFkB; 20 ng/ml, 6 hours, luciferase reporter) is reported as 19 fold.

In the case of “recombinant TGF-beta: recombinant active TGF-beta1 (R&D Systems)”, the “apparent ka for TGF-beta binding to R2X” value [7] is reported as 42 ± 6 ng/mL, the “MvLu cell ID50” value ([8]; 3 mM total cholesterol lipoprotein added, maximal) is reported as 0.52 ± 0.08 ng/mL and the “MvLu cell ID50” value ([8]; no lipoprotein, n=6) is reported as 0.12 ± 0.04 ng/mL. The “half maximal (ka) binding of recombinant TGF-beta to R2X” value [9] was 17 ± 3 ng/mL.
